Test results: US12077503B2, “Substituted cyclic amides and their use as herbicides” (FMC CORPORATION, priority 2015, dated 2024)

What was measured:
Assay type in all cases: in vivo
[1] = test system: ragweed (common ragweed, Ambrosia elatior); assay: Test A preemergence; conditions: Ambrosia artemisiifolia, pre-emergence, 240 h
How it was run: (§1)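 Preemergence soil spray on seeded pots or post-emergence spray on 1–2 leaf plants, in loam–sand blend. Greenhouse ~10 d. Visual rating 0–100 against untreated plants.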

[2] = test system: pigweed (Amaranthus retroflexus); assay: Test A preemergence; conditions: Amaranthus retroflexus, pre-emergence, 240 h
[3] = test system: giant foxtail (Setaria faberii); assay: Test A preemergence; conditions: Setaria faberi, pre-emergence, 240 h
How it was run: as §1

[4] = test system: ryegrass, Italian (Italian ryegrass, Lolium multiflorum); assay: Test A preemergence; conditions: Lolium multiflorum, pre-emergence, 240 h
How it was run: as §1

Kochia (Kochia scoparia) [5] = assay: Test A preemergence; conditions: Bassia scoparia, pre-emergence, 240 h
How it was run: as §1

[6] = test system: barnyardgrass (Echinochloa crus-galli); assay: Test A preemergence; conditions: Echinochloa crus-galli, pre-emergence, 240 h
How it was run: as §1

[7] = test system: blackgrass (Alopecurus myosuroides); assay: Test A postemergence; conditions: Alopecurus myosuroides, post-emergence, 240 h, 125 g ai/ha, Postemergence; visual injury after approximately 10 d; 0 to 100 scale where 0 is no effect and 100 is complete control; read-out: Plant response rating, Blackgrass
How it was run: as §1

corn (Zea mays) = assay: Test A postemergence; conditions: Zea mays, post-emergence, 240 h, 125 g ai/ha, Postemergence; visual injury after approximately 10 d; 0 to 100 scale where 0 is no effect and 100 is complete control
How it was run: as §1

[8] = test system: wheat (Triticum aestivum); assay: Test A postemergence; conditions: Triticum aestivum, post-emergence, 240 h, 125 g ai/ha, Postemergence; visual injury after approximately 10 d; 0 to 100 scale where 0 is no effect and 100 is complete control; read-out: Plant response rating, Wheat
How it was run: as §1

[9] = test system: ragweed (common ragweed, Ambrosia elatior); assay: Test A postemergence; conditions: Ambrosia artemisiifolia, post-emergence, 240 h, 125 g ai/ha, Postemergence; visual injury after approximately 10 d; 0 to 100 scale where 0 is no effect and 100 is complete control; read-out: Plant response rating, Ragweed
How it was run: as §1

[10] = test system: pigweed (Amaranthus retroflexus); assay: Test A postemergence; conditions: Amaranthus retroflexus, post-emergence, 240 h, 125 g ai/ha, Postemergence; visual injury after approximately 10 d; 0 to 100 scale where 0 is no effect and 100 is complete control; read-out: Plant response rating, Pigweed
How it was run: as §1

[11] = test system: Galium (catchweed bedstraw, Galium aparine); assay: Test A postemergence; conditions: Galium, post-emergence, 240 h, 125 g ai/ha, Postemergence; visual injury after approximately 10 d; 0 to 100 scale where 0 is no effect and 100 is complete control; read-out: Plant response rating, Galium
How it was run: as §1

[12] = test system: giant foxtail (Setaria faberii); assay: Test A postemergence; conditions: Setaria faberi, post-emergence, 240 h, 125 g ai/ha, Postemergence; visual injury after approximately 10 d; 0 to 100 scale where 0 is no effect and 100 is complete control; read-out: Plant response rating, Foxtail, Giant
How it was run: as §1

[13] = test system: ryegrass, Italian (Italian ryegrass, Lolium multiflorum); assay: Test A postemergence; conditions: Lolium multiflorum, post-emergence, 240 h, 125 g ai/ha, Postemergence; visual injury after approximately 10 d; 0 to 100 scale where 0 is no effect and 100 is complete control; read-out: Plant response rating, Ryegrass, Italian
How it was run: as §1

Kochia (Kochia scoparia) [14] = assay: Test A postemergence; conditions: Bassia scoparia, post-emergence, 240 h, 125 g ai/ha, Postemergence; visual injury after approximately 10 d; 0 to 100 scale where 0 is no effect and 100 is complete control; read-out: Plant response rating, Kochia
How it was run: as §1

[15] = test system: barnyardgrass (Echinochloa crus-galli); assay: Test A postemergence; conditions: Echinochloa crus-galli, post-emergence, 240 h, 125 g ai/ha, Postemergence; visual injury after approximately 10 d; 0 to 100 scale where 0 is no effect and 100 is complete control; read-out: Plant response rating, Barnyardgrass
How it was run: as §1

[16] = test system: sedge, umbrella (small-flower umbrella sedge, Cyperus difformis); assay: Test B flooded paddy test; conditions: Cyperus difformis, 250 g ai/ha, Flood; 0 to 100 scale where 0 is no effect and 100 is complete control; read-out: Sedge, Umbrella plant response rating
How it was run: (§2)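 Percent control, visually estimated after 13–15 d in the greenhouse on a 0–100 basis, compares treated pots with untreated ones; compound was put into paddy water 3 cm above the soil when plants had two leaves.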

[17] = test system: ducksalad (Heteranthera limosa); assay: Test B flooded paddy test; conditions: Heteranthera limosa, Flood, 250 g ai/ha; scale of 0 to 100 where 0 is no effect and 100 is complete control; read-out: Ducksalad plant response rating
How it was run: as §2

rice (Oryra sativa) = assay: Test B flooded paddy test; conditions: Oryza sativa, Flood, 250 g ai/ha; scale of 0 to 100 where 0 is no effect and 100 is complete control; read-out: Rice plant response rating
How it was run: as §2

[18] = test system: barnyardgrass (Echinochloa crus-galli); assay: Test B flooded paddy test; conditions: Echinochloa crus-galli, Flood, 250 g ai/ha; scale of 0 to 100 where 0 is no effect and 100 is complete control; read-out: Barnyardgrass plant response rating
How it was run: as §2

SMILES: Cc1c(F)cccc1NC(=O)[C@H]1C(=O)N(C)C[C@@H]1c1cc(F)cc(C(F)(F)F)c1 [Compound 994]
- pest or weed control at 125 g/ha ([1]; 125 g ai/ha, Preemergence, visual injury rating after approximately 10 d, read-out: Ragweed plant response rating (0 to 100 scale, 0 is no effect, 100 is complete control)): 0%
- pest or weed control at 500 g/ha ([1]; 500 g ai/ha, preemergence, visual injury rating about 10 d after treatment, 0 to 100 scale (0 no effect, 100 complete control), read-out: Ragweed plant response rating): 0%
- pest or weed control at 125 g/ha ([2]; 125 g ai/ha, Preemergence, visual injury rating after approximately 10 d, read-out: Pigweed plant response rating (0 to 100 scale, 0 is no effect, 100 is complete control)): 30%
- pest or weed control at 500 g/ha ([2]; 500 g ai/ha, preemergence, visual injury rating about 10 d after treatment, 0 to 100 scale (0 no effect, 100 complete control), read-out: Pigweed plant response rating): 70%
- pest or weed control at 125 g/ha ([3]; 125 g ai/ha, Preemergence, visual injury rating after approximately 10 d, read-out: Foxtail, Giant plant response rating (0 to 100 scale, 0 is no effect, 100 is complete control)): 100%
- pest or weed control at 500 g/ha ([3]; 500 g ai/ha, preemergence, visual injury rating about 10 d after treatment, 0 to 100 scale (0 no effect, 100 complete control), read-out: Foxtail, Giant plant response rating): 100%
- pest or weed control at 125 g/ha ([4]; 125 g ai/ha, Preemergence, visual injury rating after approximately 10 d, read-out: Ryegrass, Italian plant response rating (0 to 100 scale, 0 is no effect, 100 is complete control)): 70%
- pest or weed control at 500 g/ha ([4]; 500 g ai/ha, preemergence, visual injury rating about 10 d after treatment, 0 to 100 scale (0 no effect, 100 complete control), read-out: Ryegrass, Italian plant response rating): 100%
- pest or weed control at 125 g/ha (Kochia (Kochia scoparia) [5]; 125 g ai/ha, Preemergence, visual injury rating after approximately 10 d, read-out: Kochia plant response rating (0 to 100 scale, 0 is no effect, 100 is complete control)): 40%
- pest or weed control at 500 g/ha (Kochia (Kochia scoparia) [5]; 500 g ai/ha, preemergence, visual injury rating about 10 d after treatment, 0 to 100 scale (0 no effect, 100 complete control), read-out: Kochia plant response rating): 60%
- pest or weed control at 125 g/ha ([6]; 125 g ai/ha, Preemergence, visual injury rating after approximately 10 d, read-out: Barnyardgrass plant response rating (0 to 100 scale, 0 is no effect, 100 is complete control)): 90%
- pest or weed control at 500 g/ha ([6]; 500 g ai/ha, preemergence, visual injury rating about 10 d after treatment, 0 to 100 scale (0 no effect, 100 complete control), read-out: Barnyardgrass plant response rating): 100%
- pest or weed control at 125 g/ha [7]: 60%
- Corn plant response rating (crop injury, 0 = no effect, 100 = complete kill) at 125 g/ha (corn (Zea mays)): 70%
- plant injury at 125 g/ha [8]: 70%
- pest or weed control at 125 g/ha [9]: 20%
- pest or weed control at 125 g/ha [10]: 0%
- pest or weed control at 125 g/ha [11]: 50%
- pest or weed control at 125 g/ha [12]: 90%
- pest or weed control at 125 g/ha [13]: 70%
- pest or weed control at 125 g/ha (Kochia (Kochia scoparia) [14]): 40%
- pest or weed control at 125 g/ha [15]: 100%
- pest or weed control at 250 g/ha [16]: 0%
- pest or weed control at 250 g/ha [17]: 100%
- pest or weed control at 250 g/ha (rice (Oryra sativa)): 20%
- pest or weed control at 250 g/ha [18]: 75%
